Measurements as given in BindingDB's records for doi:10.1124/jpet.103.054775 (Cornell University, 2003).
Several values for one entry are separate records, joined by “and”; a condition that tells them apart may be missing. Equal values may be shown once. Non-standard residues stand in square brackets, D forms with d. Residues, ends and D or L forms follow the SMILES beside them. Dmt = Cc1cc(O)cc(C)c1C[C@H](N)C(=O)O

These compounds were tested against Mu-type opioid receptor (Mus musculus, UniProt P42866).
Mu-type opioid receptor, sequence (P42866 whole entry): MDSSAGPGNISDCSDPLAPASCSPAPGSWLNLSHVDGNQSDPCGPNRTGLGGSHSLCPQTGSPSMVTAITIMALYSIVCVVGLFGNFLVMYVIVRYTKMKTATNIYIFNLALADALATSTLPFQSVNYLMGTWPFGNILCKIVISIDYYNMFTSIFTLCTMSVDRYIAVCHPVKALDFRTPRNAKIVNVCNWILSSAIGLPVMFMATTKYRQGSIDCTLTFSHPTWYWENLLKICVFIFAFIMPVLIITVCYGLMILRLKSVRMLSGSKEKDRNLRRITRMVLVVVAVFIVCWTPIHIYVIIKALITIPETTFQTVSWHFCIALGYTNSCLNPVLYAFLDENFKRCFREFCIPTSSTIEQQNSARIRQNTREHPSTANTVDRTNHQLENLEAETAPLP

| Structure (SMILES) | Ki |
| --- | --- |
| C[C@@H](NC(=O)[C@@H](N)Cc1ccc(O)cc1)C(=O)N[C@@H](Cc1ccccc1)C(=O)N[C@@H](Cc1ccccc1)C(N)=O (H-Y[dA]FF-NH2) | 1.53 nM and 3.44 nM |
| NCCC[C@H](NC(=O)[C@H](Cc1ccccc1)NC(=O)[C@@H](CCCN=C(N)N)NC(=O)[C@@H](N)Cc1ccc(O)cc1)C(N)=O [5-amino-2-{1-[1-[1-amino-2-(4-hydroxyphenyl)ethylcarboxamido]-4-amino(imino)methylamino-(1R)-butylcarboxamido]-2-phenylethylcarboxamido}pentanamide] | 1.2 nM and 10.4 nM |
| Cc1cc(O)cc(C)c1C[C@H](N)C(=O)N[C@H](C)C(=O)N[C@@H](Cc1ccccc1)C(=O)N[C@@H](Cc1ccccc1)C(N)=O [Dmt-d-Ala-Phe-Phe-NH2] (H-[Dmt][dA]FF-NH2) | 0.173 nM and 0.174 nM |
| Cc1cc(O)cc(C)c1C[C@H](N)C(=O)N[C@H](CCCN=C(N)N)C(=O)N[C@@H](Cc1ccccc1)C(=O)N[C@@H](CN)C(N)=O [Dmt-d-Arg-Phe-A2pr-NH2] | 0.0636 nM and 0.145 nM |
| Cc1cc(O)cc(C)c1C[C@H](N)C(=O)N[C@H](CCCN=C(N)N)C(=O)N[C@@H](Cc1ccccc1)C(=O)N[C@@H](CCCN)C(N)=O [Dmt-d-Arg-Phe-Orn-NH2] | 0.151 nM and 0.161 nM |
| NCCCC[C@H](NC(=O)[C@H](Cc1ccccc1)NC(=O)[C@@H](CCCN=C(N)N)NC(=O)[C@@H](N)Cc1ccc(O)cc1)C(N)=O [NSC_122222] | 1.69 nM and 12.9 nM |
| NC[C@H](NC(=O)[C@H](Cc1ccccc1)NC(=O)[C@@H](CCCN=C(N)N)NC(=O)[C@@H](N)Cc1ccc(O)cc1)C(N)=O [Tyr-d-Arg-Phe-A2pr-NH2] | 2.55 nM and 12.7 nM |
